Assay results published in ChEMBL document CHEMBL1201862, “PubChem BioAssay data set” (2004).
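Values below derive from 48-hour exposures of cells grown in 96-well plates, with endpoints linearly interpolated between the two concentrations bracketing the appropriate inhibition level. Here, GI50 denotes the concentration required for 50% inhibition of growth.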 The source made the active and inactive calls. Rule as the data show it: active = GI50 up to about 1.1 µM and inactive = higher.

Key:
Assay in all cases: NCI tumour cell line growth inhibition, 48 h
EKVX = tested on: EKVX
OVCAR-8 = tested on: OVCAR-8
OVCAR-4 = tested on: OVCAR-4
K562 = tested on: K562
PC-3 = tested on: PC-3
RXF 393 = tested on: RXF 393
CAKI-1 = tested on: CAKI-1
SF-295 = tested on: SF-295
UO-31 = tested on: UO-31
SR = tested on: SR
SK-MEL-5 = tested on: SK-MEL-5
HOP-92 = tested on: HOP-92
M14 = tested on: M14
A549 = tested on: A549
SK-MEL-2 = tested on: SK-MEL-2
NCI/ADR-RES = tested on: NCI/ADR-RES
MDA-MB-231 = tested on: MDA-MB-231
CCRF-CEM = tested on: CCRF-CEM
NCI-H460 = tested on: NCI-H460
TK-10 = tested on: TK-10
MCF7 = tested on: MCF7
BT-549 = tested on: BT-549
KM12 = tested on: KM12
HCT-15 = tested on: HCT-15
SN12C = tested on: SN12C
HOP-62 = tested on: HOP-62
NCI-H23 = tested on: NCI-H23
OVCAR-5 = tested on: OVCAR-5
HCT-116 = tested on: HCT-116
UACC-62 = tested on: UACC-62
NCI-H226 = tested on: NCI-H226
U-251 = tested on: U-251
DU-145 = tested on: DU-145
786-0 = tested on: 786-0
SW-620 = tested on: SW-620
RPMI-8226 = tested on: RPMI-8226
SF-268 = tested on: SF-268
UACC-257 = tested on: UACC-257
NCI-H522 = tested on: NCI-H522
LOX IMVI = tested on: LOX IMVI
SK-MEL-28 = tested on: SK-MEL-28
SF-539 = tested on: SF-539
SNB-75 = tested on: SNB-75
OVCAR-3 = tested on: OVCAR-3
A498 = tested on: A498
SK-OV-3 = tested on: SK-OV-3
T47D = tested on: T47D
HL-60 = tested on: HL-60
ACHN = tested on: ACHN
MDA-MB-435 = tested on: MDA-MB-435
HCC 2998 = tested on: HCC 2998
HT-29 = tested on: HT-29
MOLT-4 = tested on: MOLT-4
IGROV-1 = tested on: IGROV-1
COLO 205 = tested on: COLO 205
MDA-N = tested on: MDA-N
SNB-19 = tested on: SNB-19
Malme-3M = tested on: Malme-3M

Compound: CCC(=O)NI1OC(=O)c2ccccc21
- GI50 (EKVX): > 100 µM (inactive)
- GI50 (OVCAR-8): > 100 µM (inactive)
- GI50 (OVCAR-4): > 100 µM (inactive)
- GI50 (K562): 48.5 µM (inactive)
- GI50 (PC-3): > 100 µM (inactive)
- GI50 (RXF 393): > 100 µM (inactive)
- GI50 (CAKI-1): 21.6 µM (inactive)
- GI50 (SF-295): > 100 µM (inactive)
- GI50 (UO-31): > 100 µM (inactive)
- GI50 (SR): 36.9 µM (inactive)
- GI50 (SK-MEL-5): > 100 µM (inactive)
- GI50 (HOP-92): > 100 µM (inactive)
- GI50 (M14): > 100 µM (inactive)
- GI50 (A549): > 100 µM (inactive)
- GI50 (SK-MEL-2): > 100 µM (inactive)
- GI50 (NCI/ADR-RES): > 100 µM (inactive)
- GI50 (MDA-MB-231): > 100 µM (inactive)
- GI50 (CCRF-CEM): 40.9 µM (inactive)
- GI50 (NCI-H460): > 100 µM (inactive)
- GI50 (TK-10): > 100 µM (inactive)
- GI50 (MCF7): > 100 µM (inactive)
- GI50 (BT-549): > 100 µM (inactive)
- GI50 (KM12): > 100 µM (inactive)
- GI50 (HCT-15): 43.5 µM
- GI50 (SN12C): > 100 µM (inactive)
- GI50 (HOP-62): > 100 µM (inactive)
- GI50 (NCI-H23): > 100 µM (inactive)
- GI50 (OVCAR-5): > 100 µM (inactive)
- GI50 (HCT-116): > 100 µM (inactive)
- GI50 (UACC-62): > 100 µM (inactive)
- GI50 (NCI-H226): > 100 µM (inactive)
- GI50 (U-251): > 100 µM (inactive)
- GI50 (DU-145): > 100 µM (inactive)
- GI50 (786-0): > 100 µM (inactive)
- GI50 (SW-620): > 100 µM (inactive)
- GI50 (RPMI-8226): 45.9 µM (inactive)
- GI50 (SF-268): > 100 µM (inactive)
- GI50 (UACC-257): > 100 µM (inactive)
- GI50 (NCI-H522): 15.9 µM (inactive)
- GI50 (LOX IMVI): > 100 µM (inactive)
- GI50 (SK-MEL-28): > 100 µM (inactive)
- GI50 (SF-539): > 100 µM (inactive)
- GI50 (SNB-75): > 100 µM (inactive)
- GI50 (OVCAR-3): > 100 µM (inactive)
- GI50 (A498): > 100 µM (inactive)
- GI50 (SK-OV-3): > 100 µM (inactive)
- GI50 (T47D): > 100 µM (inactive)
- GI50 (HL-60): 47.3 µM (inactive)
- GI50 (ACHN): > 100 µM (inactive)
- GI50 (MDA-MB-435): > 100 µM (inactive)
- GI50 (HCC 2998): > 100 µM (inactive)
- GI50 (HT-29): > 100 µM (inactive)
- GI50 (MOLT-4): > 100 µM (inactive)
- GI50 (IGROV-1): > 100 µM (inactive)
- GI50 (COLO 205): > 100 µM (inactive)

Compound: Sc1nnc(CCCCCCCCc2nnc(S)o2)o1
- GI50 (EKVX): > 100 µM (inactive)
- GI50 (OVCAR-8): > 100 µM (inactive)
- GI50 (OVCAR-4): > 100 µM (inactive)
- GI50 (K562): > 100 µM (inactive)
- GI50 (PC-3): > 100 µM (inactive)
- GI50 (MDA-N): > 100 µM (inactive)
- GI50 (RXF 393): > 100 µM (inactive)
- GI50 (CAKI-1): > 100 µM (inactive)
- GI50 (SF-295): > 100 µM (inactive)
- GI50 (UO-31): > 100 µM (inactive)
- GI50 (SK-MEL-5): > 100 µM (inactive)
- GI50 (M14): > 100 µM (inactive)
- GI50 (A549): > 100 µM (inactive)
- GI50 (SK-MEL-2): > 100 µM (inactive)
- GI50 (NCI/ADR-RES): > 100 µM (inactive)
- GI50 (MDA-MB-231): > 100 µM (inactive)
- GI50 (CCRF-CEM): > 100 µM (inactive)
- GI50 (SNB-19): > 100 µM (inactive)
- GI50 (NCI-H460): > 100 µM (inactive)
- GI50 (TK-10): > 100 µM (inactive)
- GI50 (MCF7): > 100 µM (inactive)
- GI50 (BT-549): > 100 µM (inactive)
- GI50 (KM12): > 100 µM (inactive)
- GI50 (HCT-15): > 100 µM
- GI50 (SN12C): > 100 µM (inactive)
- GI50 (HOP-62): > 100 µM (inactive)
- GI50 (NCI-H23): > 100 µM (inactive)
- GI50 (OVCAR-5): > 100 µM (inactive)
- GI50 (HCT-116): > 100 µM (inactive)
- GI50 (NCI-H226): > 100 µM (inactive)
- GI50 (U-251): > 100 µM (inactive)
- GI50 (DU-145): > 100 µM (inactive)
- GI50 (786-0): > 100 µM (inactive)
- GI50 (SW-620): > 100 µM (inactive)
- GI50 (SF-268): > 100 µM (inactive)
- GI50 (UACC-257): > 100 µM (inactive)
- GI50 (LOX IMVI): > 100 µM (inactive)
- GI50 (SK-MEL-28): > 100 µM (inactive)
- GI50 (SF-539): > 100 µM (inactive)
- GI50 (SNB-75): > 100 µM (inactive)
- GI50 (OVCAR-3): > 100 µM (inactive)
- GI50 (A498): > 100 µM (inactive)
- GI50 (SK-OV-3): > 100 µM (inactive)
- GI50 (HL-60): > 100 µM (inactive)
- GI50 (ACHN): > 100 µM (inactive)
- GI50 (MDA-MB-435): > 100 µM (inactive)
- GI50 (HT-29): > 100 µM (inactive)
- GI50 (MOLT-4): > 100 µM (inactive)
- GI50 (IGROV-1): > 100 µM (inactive)
- GI50 (COLO 205): > 100 µM (inactive)

Compound: COc1ccc(-c2csc3c2-n2cccc2C3=O)cc1
- GI50 (EKVX): 0.767 µM (active)
- GI50 (OVCAR-8): 0.0867 µM (active)
- GI50 (OVCAR-4): 2.07 µM (inactive)
- GI50 (Malme-3M): 28.8 µM (inactive)
- GI50 (K562): < 0.0285 µM (active)
- GI50 (PC-3): < 0.0367 µM (active)
- GI50 (MDA-N): 0.0135 µM (active)
- GI50 (RXF 393): 0.07 µM (active)
- GI50 (CAKI-1): 0.268 µM (active)
- GI50 (SF-295): 0.0395 µM (active)
- GI50 (UO-31): 0.11 µM (active)
- GI50 (SR): 0.0206 µM (active)
- GI50 (SK-MEL-5): 0.0581 µM (active)
- GI50 (HOP-92): 3.12 µM (inactive)
- GI50 (M14): 0.0346 µM (active)
- GI50 (A549): 0.159 µM (active)
- GI50 (SK-MEL-2): 0.366 µM (active)
- GI50 (NCI/ADR-RES): < 0.0204 µM (active)
- GI50 (MDA-MB-231): < 0.0375 µM (active)
- GI50 (CCRF-CEM): 0.0242 µM (active)
- GI50 (SNB-19): 0.0745 µM (active)
- GI50 (NCI-H460): 0.11 µM (active)
- GI50 (MCF7): 0.18 µM (active)
- GI50 (BT-549): 8.93 µM (inactive)
- GI50 (KM12): 0.0401 µM (active)
- GI50 (HCT-15): 0.0653 µM
- GI50 (SN12C): 0.0885 µM (active)
- GI50 (HOP-62): 0.0656 µM (active)
- GI50 (NCI-H23): 0.438 µM (active)
- GI50 (OVCAR-5): 34 µM (inactive)
- GI50 (HCT-116): 0.0461 µM (active)
- GI50 (UACC-62): 0.0269 µM (active)
- GI50 (NCI-H226): 4.46 µM (inactive)
- GI50 (U-251): 0.0326 µM (active)
- GI50 (DU-145): 0.175 µM (active)
- GI50 (786-0): 0.303 µM (active)
- GI50 (SW-620): < 0.0232 µM (active)
- GI50 (RPMI-8226): 0.0425 µM (active)
- GI50 (SF-268): 1.75 µM (inactive)
- GI50 (LOX IMVI): 0.0458 µM (active)
- GI50 (SK-MEL-28): 0.406 µM (active)
- GI50 (SF-539): 0.0304 µM (active)
- GI50 (SNB-75): 0.0964 µM (active)
- GI50 (OVCAR-3): 0.0416 µM (active)
- GI50 (A498): 0.698 µM (active)
- GI50 (SK-OV-3): 0.216 µM (active)
- GI50 (HL-60): < 0.0176 µM (active)
- GI50 (ACHN): 0.805 µM (active)
- GI50 (MDA-MB-435): 0.0132 µM (active)
- GI50 (HCC 2998): 0.344 µM (active)
- GI50 (HT-29): 0.028 µM (active)
- GI50 (MOLT-4): 0.0444 µM (active)
- GI50 (IGROV-1): 0.258 µM (active)
- GI50 (COLO 205): 0.215 µM (active)
